From ChEMBL document CHEMBL1201862, “PubChem BioAssay data set” (2004)
Activity calls are given as the source filed them.

Legend:
HEK293 [1] = assay: SAR Analysis of small molecule inhibitors of both B-cell and T-cell specific antigen receptor-induced NF-kB activation in a HEK-293T cell line using a luminescence assay. [Related pubchem assays (depositor defined):AID435003, AID435022, AID465, AID489019, AID489029]; format: functional, cell-based; details: Homo sapiens
HEK293 [2] = assay: HEK293T cell viability loss, resazurin readout – resazurin fluorescence, cytotoxicity control for NF-kB activator project, SAR follow-up (AID 493251); format: functional, cell-based; details: Homo sapiens
Jurkat = assay: SAR Analysis of small molecule inhibitors of both B-cell and T-cell specific antigen receptor-induced NF-kB activation in a Jurkat cell line using a luminescence assay. [Related pubchem assays (depositor defined):AID435003, AID435022, AID465, AID489029]; format: functional, cell-based; details: Homo sapiens
[3] = target: Serine/threonine-protein kinase pim-1 (Homo sapiens, UniProt P11309); format: functional
[4] = target: Calcium/calmodulin-dependent protein kinase type II subunit beta (Homo sapiens, UniProt Q13554); format: functional
[5] = A High Throughput Confirmatory Assay used to Identify Novel Compounds that Inhibit Mycobacterium Tuberculosis in the absence of Glycerol using Purified and Synthesized Compounds (3).; format: functional
[6] = target: ALK tyrosine kinase receptor (Homo sapiens, UniProt Q9UM73); format: functional;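 note: ALK tested as one member of a kinase panel screen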
Wee1-like protein kinase = Wee1-like protein kinase (Homo sapiens, UniProt P30291); assay: Navigating the Kinome. Panel member name: WEE1; format: functional
[7] = target: Melanin-concentrating hormone receptor 1 (Homo sapiens, UniProt Q99705); assay: Late-stage fluorescence-based counterscreen for antagonists of the G-protein coupled receptor 7 (GPR7): cell-based dose response assay to identify antagonists of the melanin-concentrating hormone receptor 1 (MCHR1) Set 5.; format: functional
[8] = target: Protein kinase C zeta type (Homo sapiens, UniProt Q05513); format: functional;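 note: measured as one member of a broad kinase profiling panel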
[9] = target: MAP kinase-activated protein kinase 3 (Homo sapiens, UniProt Q16644); format: functional;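 note: value comes from a kinome-wide profiling panel in which MAPKAPK3 is one of the panel members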
[10] = target: G protein-coupled receptor kinase 5 (Homo sapiens, UniProt P34947); assay: Navigating the Kinome. Panel member name: GPRK5; format: functional
[11] = target: Protein kinase C gamma type (Homo sapiens, UniProt P05129); format: functional
[12] = target: Mitogen-activated protein kinase 9 (Homo sapiens, UniProt P45984); format: functional;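 note: value from a kinome panel profiling assay, MAPK9 panel entry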
[13] = target: Calcium/calmodulin-dependent protein kinase type II subunit alpha (Homo sapiens, UniProt Q9UQM7); assay: Navigating the Kinome. Panel member name: CAMK2A; format: functional
[14] = target: Serine/threonine-protein kinase D3 (Homo sapiens, UniProt O94806); format: functional;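 note: determined within a kinase panel screen, with PRKCN as the panel member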
[15] = target: Proto-oncogene tyrosine-protein kinase receptor Ret (Homo sapiens, UniProt P07949); format: functional;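 note: measured within a kinome-wide profiling panel, RET as the panel member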
[16] = target: Platelet-derived growth factor receptor alpha (Homo sapiens, UniProt P16234); assay: Navigating the Kinome. Panel member name: PDGFRA; format: functional
Hexokinase HKDC1 = target: T1, Hexokinase HKDC1 (Homo sapiens, UniProt Q2TB90); assay: activation of HKDC1 glucose phosphorylation – biochemical, W721R variant, dose response (AID 504730); format: functional
T1 sequence (Q2TB90 whole entry): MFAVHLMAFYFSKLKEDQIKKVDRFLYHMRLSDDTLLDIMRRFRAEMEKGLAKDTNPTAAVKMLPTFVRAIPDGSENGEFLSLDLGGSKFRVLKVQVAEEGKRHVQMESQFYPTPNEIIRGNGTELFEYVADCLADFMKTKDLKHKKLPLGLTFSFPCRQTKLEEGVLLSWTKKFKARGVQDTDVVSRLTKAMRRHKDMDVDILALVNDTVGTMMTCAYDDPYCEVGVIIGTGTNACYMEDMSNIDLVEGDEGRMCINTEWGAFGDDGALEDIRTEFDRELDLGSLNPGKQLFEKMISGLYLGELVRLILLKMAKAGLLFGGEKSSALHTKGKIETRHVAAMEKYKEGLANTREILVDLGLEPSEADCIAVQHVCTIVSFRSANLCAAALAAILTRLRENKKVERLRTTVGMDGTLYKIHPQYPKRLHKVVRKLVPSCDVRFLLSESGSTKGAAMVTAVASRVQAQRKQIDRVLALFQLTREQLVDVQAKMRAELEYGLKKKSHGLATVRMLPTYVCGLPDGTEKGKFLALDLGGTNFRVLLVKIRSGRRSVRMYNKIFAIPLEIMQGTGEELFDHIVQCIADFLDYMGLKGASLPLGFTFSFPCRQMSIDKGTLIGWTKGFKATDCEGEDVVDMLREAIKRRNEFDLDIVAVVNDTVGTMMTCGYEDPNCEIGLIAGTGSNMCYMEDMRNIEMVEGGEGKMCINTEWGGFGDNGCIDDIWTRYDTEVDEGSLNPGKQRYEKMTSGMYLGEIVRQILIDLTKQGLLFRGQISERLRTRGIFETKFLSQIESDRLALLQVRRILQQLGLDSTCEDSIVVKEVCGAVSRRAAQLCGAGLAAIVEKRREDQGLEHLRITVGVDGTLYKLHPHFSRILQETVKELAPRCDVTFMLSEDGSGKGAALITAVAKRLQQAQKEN

[17] = target: Latent membrane protein 1 (Human herpesvirus 4 (strain B95-8), UniProt P03230); assay: LMP1 TES1 pathway selectivity over dsRED control – imaging, HEK293T, dual-color eGFP/dsRED, cherry-picks, selectivity assay for LMP1 NF-kB inhibitor project, dose response (AID 588398); format: functional, cell-based
Hexokinase-1 = Hexokinase-1 (Homo sapiens, UniProt P19367); assay: HK1 enzyme activation by HKDC1 hits – biochemical, selectivity assay for HKDC1 activator project, dose response (AID 504762); format: functional
Nonstructural protein 1 = Nonstructural protein 1 (Influenza A virus, UniProt Q194T2); format: functional, Influenza A virus (A/California/07/2009(H1N1))
[18] = target: T2, Sentrin-specific protease 6 (Homo sapiens, UniProt Q9GZR1); assay: inhibition of human SENP6 catalytic domain – biochemical, luminescence, set 2, SAR follow-up (AID 588598); format: functional
T2 sequence (Q9GZR1 whole entry): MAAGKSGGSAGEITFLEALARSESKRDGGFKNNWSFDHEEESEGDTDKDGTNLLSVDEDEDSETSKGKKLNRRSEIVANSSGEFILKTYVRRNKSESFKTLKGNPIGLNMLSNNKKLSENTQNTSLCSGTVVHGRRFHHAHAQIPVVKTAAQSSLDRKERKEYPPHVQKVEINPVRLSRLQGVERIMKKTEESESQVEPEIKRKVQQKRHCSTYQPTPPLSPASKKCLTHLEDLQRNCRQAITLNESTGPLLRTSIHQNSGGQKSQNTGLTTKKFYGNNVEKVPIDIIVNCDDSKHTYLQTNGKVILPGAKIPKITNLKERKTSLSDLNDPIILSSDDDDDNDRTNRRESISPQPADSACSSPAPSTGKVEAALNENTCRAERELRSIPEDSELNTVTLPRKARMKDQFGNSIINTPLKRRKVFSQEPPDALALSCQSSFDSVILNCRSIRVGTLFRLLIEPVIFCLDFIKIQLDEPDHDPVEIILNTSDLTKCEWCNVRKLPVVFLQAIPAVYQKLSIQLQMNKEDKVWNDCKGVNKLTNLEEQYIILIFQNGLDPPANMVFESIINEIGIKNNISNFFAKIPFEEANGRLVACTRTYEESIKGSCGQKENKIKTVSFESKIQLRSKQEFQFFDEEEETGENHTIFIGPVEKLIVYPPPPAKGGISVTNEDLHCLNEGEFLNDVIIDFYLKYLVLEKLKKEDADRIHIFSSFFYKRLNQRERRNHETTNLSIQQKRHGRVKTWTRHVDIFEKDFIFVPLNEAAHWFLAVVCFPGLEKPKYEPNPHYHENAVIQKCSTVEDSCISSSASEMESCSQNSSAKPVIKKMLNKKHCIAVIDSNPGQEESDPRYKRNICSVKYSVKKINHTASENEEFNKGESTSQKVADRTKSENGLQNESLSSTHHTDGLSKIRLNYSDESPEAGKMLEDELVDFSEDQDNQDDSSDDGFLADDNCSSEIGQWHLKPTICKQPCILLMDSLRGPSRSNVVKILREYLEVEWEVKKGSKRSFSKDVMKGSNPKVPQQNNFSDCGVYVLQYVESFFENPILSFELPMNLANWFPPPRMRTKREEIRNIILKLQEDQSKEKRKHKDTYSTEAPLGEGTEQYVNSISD

[19] = target: T3, Sentrin-specific protease 7 (Homo sapiens, UniProt Q9BQF6); assay: inhibition of human SENP7 cleavage activity – biochemical, luminescence, set 2, SAR follow-up (AID 588600); format: functional
T3 sequence (Q9BQF6 whole entry): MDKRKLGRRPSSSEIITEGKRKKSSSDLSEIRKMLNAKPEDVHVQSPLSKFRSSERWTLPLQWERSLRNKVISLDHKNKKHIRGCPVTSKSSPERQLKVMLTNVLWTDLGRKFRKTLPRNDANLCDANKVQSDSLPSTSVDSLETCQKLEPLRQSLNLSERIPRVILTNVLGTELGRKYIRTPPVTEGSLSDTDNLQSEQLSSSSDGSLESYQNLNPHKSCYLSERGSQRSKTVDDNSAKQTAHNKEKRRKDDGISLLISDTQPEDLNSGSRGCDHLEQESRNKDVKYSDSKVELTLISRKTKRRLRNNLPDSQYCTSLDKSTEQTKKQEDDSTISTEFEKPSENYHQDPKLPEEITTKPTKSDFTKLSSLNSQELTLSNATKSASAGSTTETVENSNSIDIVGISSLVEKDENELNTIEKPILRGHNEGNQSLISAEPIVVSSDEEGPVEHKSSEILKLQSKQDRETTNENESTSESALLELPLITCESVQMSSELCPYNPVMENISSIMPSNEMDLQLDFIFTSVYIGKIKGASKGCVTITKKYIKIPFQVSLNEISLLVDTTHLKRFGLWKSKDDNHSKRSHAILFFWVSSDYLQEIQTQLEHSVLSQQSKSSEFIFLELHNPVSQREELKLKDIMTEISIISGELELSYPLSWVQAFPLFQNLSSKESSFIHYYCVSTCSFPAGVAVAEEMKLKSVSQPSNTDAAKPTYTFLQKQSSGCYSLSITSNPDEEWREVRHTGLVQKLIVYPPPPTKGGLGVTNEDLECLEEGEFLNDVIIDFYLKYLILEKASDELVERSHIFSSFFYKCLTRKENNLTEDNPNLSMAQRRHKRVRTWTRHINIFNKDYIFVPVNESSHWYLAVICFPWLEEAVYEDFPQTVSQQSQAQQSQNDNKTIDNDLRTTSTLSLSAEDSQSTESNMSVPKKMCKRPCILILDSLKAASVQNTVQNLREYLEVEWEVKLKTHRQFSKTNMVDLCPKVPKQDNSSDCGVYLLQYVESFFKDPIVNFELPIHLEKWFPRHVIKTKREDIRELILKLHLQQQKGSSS

[20] = target: T4, Sentrin-specific protease 8 (Homo sapiens, UniProt Q96LD8); assay: inhibition of sentrin protease 8 – biochemical, luminescence, set 2, SAR follow-up (AID 588601); format: functional
T4 sequence (Q96LD8 whole entry): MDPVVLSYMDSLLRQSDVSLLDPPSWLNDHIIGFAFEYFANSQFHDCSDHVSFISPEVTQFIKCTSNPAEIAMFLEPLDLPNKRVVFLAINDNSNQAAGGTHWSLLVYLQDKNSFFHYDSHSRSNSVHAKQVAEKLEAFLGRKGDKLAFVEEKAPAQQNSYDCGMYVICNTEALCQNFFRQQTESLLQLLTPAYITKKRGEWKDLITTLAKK

Caspase-3 = target: T5, Caspase-3 (Homo sapiens, UniProt P42574); assay: inhibition of recombinant caspase-3 activity – biochemical, luminescence, set 2, selectivity assay for SENP protease inhibitor project, SAR follow-up (AID 588599); format: functional
T5 sequence (P42574 whole entry): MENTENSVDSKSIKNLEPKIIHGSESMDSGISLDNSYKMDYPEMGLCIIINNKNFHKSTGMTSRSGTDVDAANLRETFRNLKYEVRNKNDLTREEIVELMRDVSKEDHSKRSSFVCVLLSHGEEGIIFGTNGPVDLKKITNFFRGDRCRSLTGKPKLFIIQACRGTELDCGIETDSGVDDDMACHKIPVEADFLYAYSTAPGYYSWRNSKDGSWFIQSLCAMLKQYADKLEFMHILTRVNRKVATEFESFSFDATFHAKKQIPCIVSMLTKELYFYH

Sequence of Wee1-like protein kinase (P30291 whole entry): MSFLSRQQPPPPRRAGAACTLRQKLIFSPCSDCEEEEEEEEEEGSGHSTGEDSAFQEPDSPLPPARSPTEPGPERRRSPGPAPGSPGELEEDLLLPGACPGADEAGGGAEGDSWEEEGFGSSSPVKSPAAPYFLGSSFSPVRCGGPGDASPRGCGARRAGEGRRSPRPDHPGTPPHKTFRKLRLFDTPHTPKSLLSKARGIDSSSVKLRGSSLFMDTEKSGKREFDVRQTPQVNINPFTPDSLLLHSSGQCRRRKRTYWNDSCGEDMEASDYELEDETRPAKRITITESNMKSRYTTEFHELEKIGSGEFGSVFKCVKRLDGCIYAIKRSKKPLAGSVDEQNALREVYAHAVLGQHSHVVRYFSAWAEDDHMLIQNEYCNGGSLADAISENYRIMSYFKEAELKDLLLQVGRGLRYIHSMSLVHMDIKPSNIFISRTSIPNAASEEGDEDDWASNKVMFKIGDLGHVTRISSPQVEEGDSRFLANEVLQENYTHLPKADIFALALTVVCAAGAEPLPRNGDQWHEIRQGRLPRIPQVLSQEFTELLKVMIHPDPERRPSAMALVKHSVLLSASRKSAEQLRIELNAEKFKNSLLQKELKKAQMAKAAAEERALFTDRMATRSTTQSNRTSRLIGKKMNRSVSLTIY
Sequence of Serine/threonine-protein kinase pim-1 (P11309 whole entry): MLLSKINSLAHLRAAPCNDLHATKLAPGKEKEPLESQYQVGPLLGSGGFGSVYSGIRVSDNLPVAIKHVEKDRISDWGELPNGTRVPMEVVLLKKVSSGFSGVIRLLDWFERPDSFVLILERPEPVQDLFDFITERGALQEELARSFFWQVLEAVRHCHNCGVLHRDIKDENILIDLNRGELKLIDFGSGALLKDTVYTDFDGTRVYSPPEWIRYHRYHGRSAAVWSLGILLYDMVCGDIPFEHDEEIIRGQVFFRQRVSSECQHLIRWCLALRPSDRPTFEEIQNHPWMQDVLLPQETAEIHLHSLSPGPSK
Sequence of MAP kinase-activated protein kinase 3 (Q16644 whole entry): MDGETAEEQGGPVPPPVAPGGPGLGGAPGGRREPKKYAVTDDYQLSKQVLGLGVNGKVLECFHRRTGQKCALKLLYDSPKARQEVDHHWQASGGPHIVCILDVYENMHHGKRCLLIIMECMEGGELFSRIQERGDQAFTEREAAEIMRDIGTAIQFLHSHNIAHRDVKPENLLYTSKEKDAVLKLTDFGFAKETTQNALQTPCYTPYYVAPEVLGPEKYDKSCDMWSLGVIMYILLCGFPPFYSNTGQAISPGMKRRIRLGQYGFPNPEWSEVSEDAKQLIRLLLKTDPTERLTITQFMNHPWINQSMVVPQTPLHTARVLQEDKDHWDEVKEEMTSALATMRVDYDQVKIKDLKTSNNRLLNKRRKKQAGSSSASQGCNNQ
Sequence of Platelet-derived growth factor receptor alpha (P16234 whole entry): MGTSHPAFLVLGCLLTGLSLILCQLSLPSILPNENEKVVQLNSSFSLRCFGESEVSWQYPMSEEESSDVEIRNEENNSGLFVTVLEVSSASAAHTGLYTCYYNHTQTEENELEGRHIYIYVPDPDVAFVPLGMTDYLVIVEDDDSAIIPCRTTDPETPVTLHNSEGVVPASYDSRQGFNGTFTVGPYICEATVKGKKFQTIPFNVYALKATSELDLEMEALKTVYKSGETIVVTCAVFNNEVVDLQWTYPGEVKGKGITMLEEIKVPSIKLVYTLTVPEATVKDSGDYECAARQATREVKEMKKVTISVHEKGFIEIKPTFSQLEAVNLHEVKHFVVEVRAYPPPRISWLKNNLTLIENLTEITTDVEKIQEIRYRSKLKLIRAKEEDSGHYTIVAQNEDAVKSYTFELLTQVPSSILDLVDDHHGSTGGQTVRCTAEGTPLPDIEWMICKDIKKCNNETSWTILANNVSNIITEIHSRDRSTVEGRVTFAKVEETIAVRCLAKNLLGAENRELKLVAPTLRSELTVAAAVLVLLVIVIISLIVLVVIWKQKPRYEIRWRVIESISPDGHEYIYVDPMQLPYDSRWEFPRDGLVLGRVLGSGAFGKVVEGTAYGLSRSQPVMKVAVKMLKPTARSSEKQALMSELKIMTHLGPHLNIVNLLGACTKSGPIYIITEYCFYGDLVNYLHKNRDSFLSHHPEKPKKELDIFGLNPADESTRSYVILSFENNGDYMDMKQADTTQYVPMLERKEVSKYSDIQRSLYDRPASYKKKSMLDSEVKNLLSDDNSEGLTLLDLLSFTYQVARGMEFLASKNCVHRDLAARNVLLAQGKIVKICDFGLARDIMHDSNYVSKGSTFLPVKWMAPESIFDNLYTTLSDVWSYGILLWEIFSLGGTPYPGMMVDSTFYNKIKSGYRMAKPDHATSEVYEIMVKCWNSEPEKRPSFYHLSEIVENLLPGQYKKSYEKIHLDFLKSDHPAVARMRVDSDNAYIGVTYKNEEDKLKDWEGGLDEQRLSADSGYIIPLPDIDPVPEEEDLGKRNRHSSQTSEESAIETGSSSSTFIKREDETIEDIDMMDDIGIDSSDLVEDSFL
Sequence of Protein kinase C zeta type (Q05513 whole entry): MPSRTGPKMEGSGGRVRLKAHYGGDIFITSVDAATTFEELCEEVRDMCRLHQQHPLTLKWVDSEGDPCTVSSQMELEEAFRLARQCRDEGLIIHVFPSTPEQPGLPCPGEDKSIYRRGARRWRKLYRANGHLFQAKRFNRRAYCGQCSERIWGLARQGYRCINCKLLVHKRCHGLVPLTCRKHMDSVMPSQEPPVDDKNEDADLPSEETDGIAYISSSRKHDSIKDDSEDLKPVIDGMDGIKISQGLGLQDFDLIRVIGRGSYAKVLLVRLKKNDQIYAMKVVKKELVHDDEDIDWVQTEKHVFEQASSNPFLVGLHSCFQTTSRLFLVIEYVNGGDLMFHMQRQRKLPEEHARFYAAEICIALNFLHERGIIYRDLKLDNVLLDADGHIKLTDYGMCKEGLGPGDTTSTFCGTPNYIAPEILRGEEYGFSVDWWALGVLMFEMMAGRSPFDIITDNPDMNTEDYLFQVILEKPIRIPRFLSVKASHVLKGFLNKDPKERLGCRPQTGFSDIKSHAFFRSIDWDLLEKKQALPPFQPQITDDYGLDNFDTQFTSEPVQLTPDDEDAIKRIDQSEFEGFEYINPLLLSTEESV
Sequence of Nonstructural protein 1 (Q194T2 whole entry, the tested form may be a part): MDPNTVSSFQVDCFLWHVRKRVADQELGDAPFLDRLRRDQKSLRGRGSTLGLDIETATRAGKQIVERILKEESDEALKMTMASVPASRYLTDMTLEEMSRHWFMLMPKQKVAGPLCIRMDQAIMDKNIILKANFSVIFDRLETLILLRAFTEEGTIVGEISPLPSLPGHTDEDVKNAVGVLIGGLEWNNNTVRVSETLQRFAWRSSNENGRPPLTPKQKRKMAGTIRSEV
Sequence of Serine/threonine-protein kinase D3 (O94806 whole entry): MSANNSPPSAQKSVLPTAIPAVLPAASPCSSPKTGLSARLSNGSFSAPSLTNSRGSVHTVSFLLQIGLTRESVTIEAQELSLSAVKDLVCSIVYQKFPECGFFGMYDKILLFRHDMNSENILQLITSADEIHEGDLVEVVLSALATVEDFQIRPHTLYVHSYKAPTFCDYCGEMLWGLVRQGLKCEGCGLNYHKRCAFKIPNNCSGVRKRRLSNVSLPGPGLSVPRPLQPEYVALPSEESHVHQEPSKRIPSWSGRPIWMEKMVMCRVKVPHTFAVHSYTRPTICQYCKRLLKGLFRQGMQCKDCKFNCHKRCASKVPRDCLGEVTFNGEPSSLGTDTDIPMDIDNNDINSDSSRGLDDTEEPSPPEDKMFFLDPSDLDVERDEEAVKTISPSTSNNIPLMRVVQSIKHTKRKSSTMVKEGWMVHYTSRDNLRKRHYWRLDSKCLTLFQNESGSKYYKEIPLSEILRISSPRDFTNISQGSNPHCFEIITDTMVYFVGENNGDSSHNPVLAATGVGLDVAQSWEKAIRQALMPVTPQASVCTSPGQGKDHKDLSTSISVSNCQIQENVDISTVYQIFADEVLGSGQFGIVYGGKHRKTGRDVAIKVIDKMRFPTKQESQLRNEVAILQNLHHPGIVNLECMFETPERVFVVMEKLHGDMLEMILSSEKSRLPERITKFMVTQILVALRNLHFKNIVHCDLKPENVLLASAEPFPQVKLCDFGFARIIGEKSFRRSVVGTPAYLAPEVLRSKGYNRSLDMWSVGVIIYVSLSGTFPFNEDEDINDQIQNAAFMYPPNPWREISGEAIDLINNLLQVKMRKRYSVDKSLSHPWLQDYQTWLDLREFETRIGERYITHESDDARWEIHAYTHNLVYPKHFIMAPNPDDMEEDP
Sequence of Calcium/calmodulin-dependent protein kinase type II subunit alpha (Q9UQM7 whole entry): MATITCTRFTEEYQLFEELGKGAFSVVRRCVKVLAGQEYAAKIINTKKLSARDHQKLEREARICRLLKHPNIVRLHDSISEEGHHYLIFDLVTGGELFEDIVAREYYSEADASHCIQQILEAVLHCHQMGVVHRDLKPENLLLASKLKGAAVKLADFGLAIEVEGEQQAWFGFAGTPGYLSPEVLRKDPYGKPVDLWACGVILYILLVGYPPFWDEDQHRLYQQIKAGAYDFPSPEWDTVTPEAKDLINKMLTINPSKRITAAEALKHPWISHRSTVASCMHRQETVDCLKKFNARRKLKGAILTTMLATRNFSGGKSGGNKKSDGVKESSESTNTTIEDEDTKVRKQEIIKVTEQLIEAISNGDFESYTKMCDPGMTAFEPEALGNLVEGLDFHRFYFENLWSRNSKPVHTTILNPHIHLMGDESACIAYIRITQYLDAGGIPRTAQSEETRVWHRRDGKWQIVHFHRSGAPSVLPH
Sequence of Melanin-concentrating hormone receptor 1 (Q99705 whole entry): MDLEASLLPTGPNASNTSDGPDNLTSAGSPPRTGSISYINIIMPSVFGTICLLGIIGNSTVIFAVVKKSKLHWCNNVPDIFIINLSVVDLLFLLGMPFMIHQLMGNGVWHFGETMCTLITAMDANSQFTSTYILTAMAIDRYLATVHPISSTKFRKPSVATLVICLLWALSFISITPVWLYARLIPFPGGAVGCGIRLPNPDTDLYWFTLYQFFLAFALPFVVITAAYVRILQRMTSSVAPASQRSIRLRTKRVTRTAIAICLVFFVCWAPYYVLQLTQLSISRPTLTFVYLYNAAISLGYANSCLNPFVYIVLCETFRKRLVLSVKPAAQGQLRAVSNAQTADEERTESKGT

Compound: COc1cc(N)c2ncccc2c1
- IC50 (HEK293 [1]): > 79 µM (inactive)
- IC50 (HEK293 [2]): 43.1 µM (inactive)
- IC50 (Jurkat): 76.2 µM (inactive)

Compound: CNCCONC(=O)c1ccc(F)c(F)c1Nc1ccc(I)cc1F
- Ki [3]: 2 µM (active)
- Ki [4]: 7.94 µM (active)

Compound: CCOc1ccc(NC(=O)CSc2nc(O)c(C)c(=O)n2-c2ccc(F)cc2)cc1
- IC50 [5]: > 25 µM (active)

Compound: CCNc1nc(C)c(-c2ccnc(Nc3ccc(N4CCNCC4)cc3)n2)s1
- Ki [6]: 200 nM (active)
- Ki (Wee1-like protein kinase): 79.4 nM (active)

Compound: COc1ccc(Oc2c(Cl)cnn(Cc3cccc4ccccc34)c2=O)cc1OC
- IC50 [7]: 1.44 µM (active)

Compound: O=c1ncn2nc(Sc3ccc(F)cc3F)ccc2c1-c1c(Cl)cccc1Cl [NEFLAMAPIMOD]
- Ki [8]: > 7.94 µM (inactive)
- Ki [9]: > 10 µM (inactive)
- Ki [10]: > 3.98 µM (inactive)
- Ki [11]: > 7.94 µM (inactive)

Compound: CCN(CCN(C)C)C(=O)c1cccc(-n2nc(C(C)(C)C)cc2NC(=O)Nc2cccc3ccccc23)c1
- Ki [12]: 3.16 µM (active)
- Ki [13]: > 7.94 µM (inactive)
- Ki [14]: 3.16 µM (active)
- Ki [15]: 1.58 µM (active)
- Ki [16]: 1.26 µM (active)

Compound: COc1ccccc1NC(=S)NN=C(C)c1ccccn1
- EC50 (Hexokinase HKDC1): 3.03 µM (active)
- AC50 [17]: 638 nM (active)
- EC50 (Hexokinase-1): > 80 µM (inactive)
- IC50 (Nonstructural protein 1): 25.8 µM (active)

Compound: Cc1[nH]c2ccccc2c1/C=N/NC(=O)c1cc2ccccc2cc1O
- IC50 [18]: 83.4 µM (active)
- IC50 [19]: 95.7 µM (active)
- IC50 [20]: 79.4 µM (active)
- IC50 (Caspase-3): > 99 µM (inactive)
